In the Deep4Chem optical property database:
Several values for one entry are separate records, joined by “and”; a condition that tells them apart may be missing. Equal values may be shown once. Each block holds one compound with its values, some of them ahead of it.

Assay: photoluminescence quantum yield (fraction); solvent given as SMILES

- photoluminescence quantum yield (in C1CCCCC1): 0.0016
- photoluminescence quantum yield (in CC#N): 0.0027
- photoluminescence quantum yield (in CCO): 0.004
- photoluminescence quantum yield (in c1ccccc1): 0.0024
Structure (SMILES): CN(C)c1cccc2c1C(=O)c1ccccc1-2

- photoluminescence quantum yield (in C1COCCO1): 0.0133
- photoluminescence quantum yield (in CC#N): 0.0147
- photoluminescence quantum yield (in CCCCO): 0.0231
- photoluminescence quantum yield (in CCCO): 0.0164
- photoluminescence quantum yield (in CCO): 0.0106
- photoluminescence quantum yield (in CCOC(C)=O): 0.0113
- photoluminescence quantum yield (in CO): 0.00754
Structure (SMILES): Cc1cnc(NC(=O)C2=C(O)c3ccccc3S(=O)(=O)N2C)s1

- photoluminescence quantum yield (in ClCCl): 0.02
Structure (SMILES): Cc1c(C(=O)c2ccccc2)c2ccc3cccc4c5cccc6ccc1c(c65)c2c34

- photoluminescence quantum yield (in ClC(Cl)Cl): 0.19
Structure (SMILES): N#CC(C#N)=Cc1ccc(-c2ccc(N(c3ccccc3)c3ccccc3)cc2)o1

- photoluminescence quantum yield (in CCCCCC): 0.93
- photoluminescence quantum yield (in CO): 0.99
- photoluminescence quantum yield (in ClCCl): 0.87
Structure (SMILES): CC1=CC(C)=[N+]2C1=Cc1cccn1[B-]2(F)F

- photoluminescence quantum yield (in C1CCCCC1): 0.006
- photoluminescence quantum yield (in CC#N): 0.043
- photoluminescence quantum yield (in CCO): 0.0033
- photoluminescence quantum yield (in c1ccccc1): 0.13
Structure (SMILES): Nc1ccc2c(c1)-c1ccccc1C2=O

- photoluminescence quantum yield (in ClCCl): 0.00091
Structure (SMILES): COC(=O)C1=C(C(=O)OC)C2(c3ccccc3-c3c(Br)cc(Br)cc32)C2(/C=C/c3ccccc3)c3cc(OC)c(OC)cc3CCN12 (configuration not stated)

- photoluminescence quantum yield (in ClCCl): 0
Structure (SMILES): O=[N+]([O-])c1ccc(-c2nc(/C=C/c3ccccc3)c(/C=C/c3ccccc3)[nH]2)cc1

- photoluminescence quantum yield (in ClCCl): 0.83
Structure (SMILES): F[B-]1(F)OC(C#Cc2ccccc2)=C2CCc3ccccc3C2=[O+]1

- photoluminescence quantum yield (in CC#N): 0.009
- photoluminescence quantum yield (in CCCCCCC): 0.051
- photoluminescence quantum yield (in CO): 0.003
- photoluminescence quantum yield (in O): 0.024
Structure (SMILES): O=[N+]([O-])c1ccc(/C=C/c2c[nH]c3ccccc23)cc1

- photoluminescence quantum yield (in CCO): 0.44
Structure (SMILES): Cc1cc2cc3cc(C)c(C)cc3cc2cn1

- photoluminescence quantum yield (in ClCCl): 0.004
Structure (SMILES): CC(=O)c1c(N[C@H](C(=O)O)C(C)C)c2ccc(N(C)C)cc2oc1=O

- photoluminescence quantum yield (in ClCCl): 0.1
Structure (SMILES): CCCCn1c2ccc(C#N)cc2c2cc(C#N)ccc21

The remaining lines, values behind:

Structure (SMILES): CCC1(CC)c2cc(C#Cc3cc(C#Cc4ccc5c(c4)C(CC)(CC)c4cc(N(c6ccccc6)c6ccccc6)ccc4-5)c4ccc5c(C#Cc6ccc7c(c6)C(CC)(CC)c6cc(N(c8ccccc8)c8ccccc8)ccc6-7)cc(C#Cc6ccc7c(c6)C(CC)(CC)c6cc(N(c8ccccc8)c8ccccc8)ccc6-7)c6ccc3c4c65)ccc2-c2ccc(N(c3ccccc3)c3ccccc3)cc21
- photoluminescence quantum yield (in Cc1ccccc1): 0.43

Structure (SMILES): CCN(CC)c1ccc(-c2nc3c(nc2-c2ccc(B(c4c(C)cc(C)cc4C)c4c(C)cc(C)cc4C)cc2)c2ccccc2n3C)cc1
- photoluminescence quantum yield (in C1CCOC1): 0.21

Structure (SMILES): C(#Cc1ccccc1)C(C#Cc1ccccc1)=Cc1cccc(C=C(C#Cc2ccccc2)C#Cc2ccccc2)c1
- photoluminescence quantum yield (in ClC(Cl)Cl): 0.06

Structure (SMILES): c1ccc2c([SiH](c3c4ccccc4cc4ccccc34)c3c4ccccc4cc4ccccc34)c3ccccc3cc2c1
- photoluminescence quantum yield (in ClC(Cl)Cl): 0.028

Structure (SMILES): CCCC1=Cc2nc1ccc1[nH]c(cc1CCC)c1nc(ccc3[nH]c2cc3CCC)C(CCC)=C1
- photoluminescence quantum yield (in Cc1ccccc1): 0.38

Structure (SMILES): CC(C)c1cc(C(C)C)c(-c2nnc(-c3ccc(-n4c5ccccc5c5ccccc54)cc3)o2)c(C(C)C)c1
- photoluminescence quantum yield (in Cc1ccccc1): 0.61

Structure (SMILES): c1cc(N2CCCC2)ccn1
- photoluminescence quantum yield (in CC1CCCCC1): 0.09
- photoluminescence quantum yield (in ClC(Cl)Cl): 0.03

Structure (SMILES): CCCCCCCCCCCCN1C(=O)c2c(c3ccc4cc(-c5cccs5)c(OC)cc4c3c3c2ccc2cc(-c4cccs4)c(OC)cc23)C1=O
- photoluminescence quantum yield (in ClCCl): 0.216

Structure (SMILES): C#Cc1ccc(-c2c3nc(c(-c4ccc(C#C)cc4)c4ccc([nH]4)c(-c4cc(C(C)(C)C)cc(C(C)(C)C)c4)c4cc(c(-c5cc(C(C)(C)C)cc(C(C)(C)C)c5)c5ccc2[nH]5)C=N4)C=C3)cc1
- photoluminescence quantum yield (in ClCCl): 0.0269

Structure (SMILES): CCOC(=O)/C(C#N)=C\c1ccc2c(c1)c1ccccc1n2-c1ccc(C)cc1
- photoluminescence quantum yield (in C1CCOC1): 0.09
- photoluminescence quantum yield (in CC#N): 0.01
- photoluminescence quantum yield (in CC(C)=O): 0.025
- photoluminescence quantum yield (in CCOC(C)=O): 0.11
- photoluminescence quantum yield (in CO): 0.06
- photoluminescence quantum yield (in CS(C)=O): 0.04
- photoluminescence quantum yield (in Cc1ccccc1): 0.095
- photoluminescence quantum yield (in ClC(Cl)Cl): 0.08

Structure (SMILES): N#Cc1ccc(C2=Cc3cc4ccccc4cc3P2(=O)c2ccccc2)cc1 (configuration not stated)
- photoluminescence quantum yield (in ClCCl): 0.54

Structure (SMILES): c1ccc(-c2nc(-c3ccccc3)nc(-c3cc(-n4c5ccccc5c5ccccc54)cc(-n4c5ccccc5c5ccccc54)c3)n2)cc1
- photoluminescence quantum yield (in O=P(c1ccccc1)(c1ccccc1)c1ccc2oc3ccc(P(=O)(c4ccccc4)c4ccccc4)cc3c2c1): 0.58

Structure (SMILES): CCCCCCCCn1c(=O)c2cc3c(C#Cc4ccc(N(c5ccccc5)c5ccccc5)cc4)c4cc5c(=O)n(CCCCCCCC)c(=O)c5cc4c(C#Cc4ccc(N(c5ccccc5)c5ccccc5)cc4)c3cc2c1=O
- photoluminescence quantum yield (in ClC(Cl)Cl): 0.53

Structure (SMILES): COc1ccc(-c2cc(N3CCCCC3)c(C#N)c3c2-c2cccc4cccc-3c24)cc1
- photoluminescence quantum yield (in O): 0.36

Structure (SMILES): C(#Cc1ccccc1)C(C#Cc1ccccc1)=Cc1ccc(C=C(C#Cc2ccccc2)C#Cc2ccccc2)s1
- photoluminescence quantum yield (in ClC(Cl)Cl): 0.09 and 0.08

Structure (SMILES): c1ccc2cc(-c3c4ccccc4c(-c4nccc5ccccc45)c4ccccc34)ccc2c1
- photoluminescence quantum yield (in ClCCl): 0.57

Structure (SMILES): Cc1ccc(C2=C3C=CC4=[N+]3[P-](=O)(=O)n3c2ccc3-c2ccc([nH]2)/C(c2ccc(C)cc2)=c2/cc/c(o2)=C(\c2ccc(C)cc2)c2ccc4[nH]2)cc1
- photoluminescence quantum yield (in ClC(Cl)Cl): 0.18

Structure (SMILES): O=[N+]([O-])c1ccc(-c2cn3ccc[n+]3[n-]2)cc1
- photoluminescence quantum yield (in ClCCl): 0.16

Structure (SMILES): Cc1ccc(C)cc1
- photoluminescence quantum yield (in C1CCCCC1): 0.39
